Test results reported in PMC7799364, “Dual inhibition of the terminal oxidases eradicates antibiotic‐tolerant Mycobacterium tuberculosis” (EMBO Molecular Medicine, 2020).

How the values were obtained:
[1] = biological target: T1, cytochrome bcc (QcrB, cytochrome b subunit of cytochrome bcc:aa3) (Mycolicibacterium smegmatis, UniProt A0R052); test: NADH-based heme difference spectra of wild-type IMVs with […] Q203; Q203 also inhibits OCR of ΔcydAB IMVs; assay type: cell-based
T1 construct: gene MSMEG_4263; native cytochrome bcc-aa3 supercomplex in wild-type inverted-membrane vesicles; with cytochrome bcc-aa3 supercomplex

[2] = biological target: T2, cytochrome bd oxidase (Cyt-bd) (Mycolicibacterium smegmatis, UniProt A0QXA8); test: reduced minus oxidized heme difference spectra of NADH-energized ΔqcrCAB IMVs with […] compound; assay type: cell-based
T2 construct: gene MSMEG_3233; native enzyme in inverted-membrane vesicles of M. smegmatis ΔqcrCAB; with CydB
T2 sequence (A0QXA8 1-487): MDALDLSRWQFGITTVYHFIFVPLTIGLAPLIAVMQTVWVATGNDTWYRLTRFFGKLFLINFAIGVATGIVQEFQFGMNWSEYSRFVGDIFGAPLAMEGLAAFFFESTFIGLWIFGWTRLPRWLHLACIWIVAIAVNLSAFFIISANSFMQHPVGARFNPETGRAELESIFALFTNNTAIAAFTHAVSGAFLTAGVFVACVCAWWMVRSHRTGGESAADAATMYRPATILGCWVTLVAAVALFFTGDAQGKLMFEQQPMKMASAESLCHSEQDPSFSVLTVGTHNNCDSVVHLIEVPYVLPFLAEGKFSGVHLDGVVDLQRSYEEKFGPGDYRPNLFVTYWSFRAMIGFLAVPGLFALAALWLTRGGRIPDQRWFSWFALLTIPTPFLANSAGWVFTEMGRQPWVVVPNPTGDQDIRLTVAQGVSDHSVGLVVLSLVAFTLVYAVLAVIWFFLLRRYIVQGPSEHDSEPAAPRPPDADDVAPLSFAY
T2 sequence (A0QXA7 1-350 partner): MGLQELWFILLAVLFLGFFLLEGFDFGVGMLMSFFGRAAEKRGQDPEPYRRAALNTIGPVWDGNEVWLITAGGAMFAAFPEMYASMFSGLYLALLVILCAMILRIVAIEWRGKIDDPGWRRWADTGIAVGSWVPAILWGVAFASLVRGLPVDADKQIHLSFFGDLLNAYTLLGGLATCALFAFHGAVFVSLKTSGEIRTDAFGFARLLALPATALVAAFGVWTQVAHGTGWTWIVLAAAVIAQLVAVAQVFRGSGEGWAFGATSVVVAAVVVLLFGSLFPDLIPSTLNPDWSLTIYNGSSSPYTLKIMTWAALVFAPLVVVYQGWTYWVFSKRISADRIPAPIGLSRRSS

CCc1nc2ccc(Cl)cn2c1C(=O)NCc1ccc(N2CCC(c3ccc(OC(F)(F)F)cc3)CC2)cc1 [Q203]
NADH-based heme difference spectra of wild-type IMVs with 7.5 μM Q203; Q203 also [1]: confirming drug binding and inhibition of the electron transfer within the cytochrome bcc complex

FC(F)(F)c1ccc(Oc2ccc(Nc3ncnc4ccccc34)cc2)cc1 [ND-011992, N‐(4‐(4‐(trifluoromethyl)phenoxy)phenyl)quinazolin‐4‐amine]
reduced minus oxidized heme difference spectra of NADH-energized ΔqcrCAB IMVs wi [2]: the compound selectively binds and affects electron transfer in the mycobacterial Cyt‐bd
